Here are results for 3 compounds from US20180312844A1, “TREATMENT FOR CANCER METASTASIS” (The Board of Regents of the UIniversity of Texas System, priority 2015, published 2018).

In one experiment the test system is melanoma. The note with it: at 5 years; 2011 meta-analysis; adjuvant treatment of melanoma; cited from earlier work.
The subject of experiment [1] is circulating human melanoma cells. The experiment can be described thus: Frequency of circulating melanoma cells in the blood by flow cytometry. In kind it is in vivo, NSG mice. An excerpt:
(§1) Melanoma specimens were obtained with informed consent from all patients according to protocols approved by the Institutional Review Boards of the University of Michigan Medical School (IRBMED approvals HUM00050754 and HUM00050085 (Quintana et al., 2012) and the University of Texas Southwestern Medical Center. Unless otherwise indicated, patient-derived xenografts were established by subcutaneously injecting 100 freshly dissociated melanoma cells into the right flanks of NOD/SCID IL2Rγ^null (NSG) mice in 25% high-protein Matrigel, or by injecting intravenously or intrasplenically, depending on the experiment. The subcutaneous tumors were measured every 10 days until any tumor in the mouse cohort reached 2.5 cm in its largest diameter. Mice were monitored daily for signs of distress and euthanized according to a standard body condition score or when their tumors reached 2.5 cm in largest diameter, whichever came first. […] After intravenous and intrasplenic injections mice were imaged every month until the bioluminescence signal was saturated, then mice were euthanized and organs were analyzed visually and by bioluminescence imaging for the presence of micro and macrometastases. […] Reporters of mitochondrial mass, mitochondrial membrane potential, and ROS were used to stain equal numbers of dissociated melanoma cells and analyzed by flow cytometry. […]
(A flow cytometer gives signals particle by particle.)

The subject of experiment [2] is human melanoma cells (M405, M481, UT10) transplanted subcutaneously. The experiment in a line: Growth of primary subcutaneous tumors of patient-derived melanoma xenografts in NSG mice. In kind it is in vivo.
Description: as §1

Experiment [3] deals with human melanoma metastases in visceral organs. The experiment can be described thus: Metastatic disease burden by total bioluminescence signal from visceral organs. It is filed as in vivo, NSG mice.
Description: as §1

As to interferon, the increase in survival with melanoma was 3%.

Take `CC(=O)N[C@@H](CS)C(=O)O` [NAC, N-acetyl-cysteine]: the “frequency of melanoma cells in the blood” value in experiment [1] (NAC 200 mg/kg/day s.c., mice transplanted with M405 and UT10, FIG. 4B) is “significantly increased”. In addition, in experiment [2] (NAC 200 mg/kg/day, daily subcutaneous injection, melanomas M405, M481, UT10, vs PBS, FIG. 4A), the “growth of primary subcutaneous tumors” value is reported as “In no case did NAC treatment significantly affect”. In experiment [3] (NAC 200 mg/kg/day s.c., mice transplanted with M405 and M481, FIG. 4C), the metastatic disease burden entry is given as “significantly increased”.

For `CN(Cc1cnc2nc(N)nc(N)c2n1)c1ccc(C(=O)N[C@@H](CCC(=O)O)C(=O)O)cc1` [Methotrexate], the “frequency of circulating melanoma cells in the blood” value in experiment [1] (methotrexate 1.25 mg/kg/day with thymidine and hypoxanthine, M405, M481, UT10, FIG. 5C) is “significantly reduced”. The “growth of primary subcutaneous tumors” value in experiment [2] (low dose methotrexate 1.25 mg/kg/day with thymidine and hypoxanthine, M405, M481, UT10, vs DMSO control, FIG. 5B) is reported as “no significant effect”. In addition, in experiment [3] (methotrexate 1.25 mg/kg/day with thymidine and hypoxanthine, M405, M481, UT10, FIG. 5D), the metastatic disease burden result is recorded as “significantly reduced”.
